The source of these data is ChEMBL document CHEMBL3044992, “Design, synthesis, and docking studies of novel ofloxacin analogues as antimicrobial agents” (2012).

Converted amounts (≈) assume the structure as drawn.

Common to all, as to format: functional
One test deals with Bacillus subtilis. The test can be described thus: Antibacterial activity against Bacillus subtilis after 24 hr by two-fold serial dilution method.
The next test has as its system Escherichia coli. The test can be described thus: Antibacterial activity against Escherichia coli after 24 hr by two-fold serial dilution method.
The next test concerns Klebsiella pneumoniae. The test can be described thus: Antibacterial activity against Klebsiella pneumoniae after 24 hr by two-fold serial dilution method.
Test [1] has as its system Staphylococcus epidermidis. The test can be described thus: Antibacterial activity against Staphylococcus epidermidis after 24 hr by two-fold serial dilution method.
The subject of test [2] is Candida albicans. The test can be described thus: Antifungal activity against Candida albicans at 25 ug/ml after 48 hr […]. The note with it: read-out: IZ.
The next test concerns Pseudomonas aeruginosa. The test can be described thus: Antibacterial activity against Pseudomonas aeruginosa after 24 hr by two-fold serial dilution method.
The subject of test [3] is Candida albicans. The test can be described thus: Antifungal activity against Candida albicans at 50 ug/ml after 48 hr […]. The note with it: read-out: IZ.
The next test concerns Staphylococcus aureus. The test can be described thus: Antibacterial activity against Staphylococcus aureus after 24 hr by two-fold serial dilution method.
Test [4] concerns Candida albicans. The test can be described thus: Antifungal activity against Candida albicans at 100 ug/ml after 48 hr […]. The conditions noted are these: read-out: IZ.

Take `CC1COc2c(N3CCN(C)CC3)c(F)cc3c(=O)c(-c4nn(CCC(=O)Cc5cccc([N+](=O)[O-])c5)c(=S)n4N)cn1c23` (stereo not given): the minimum inhibitory concentration (MIC) worked out at 0.5 µg/mL (≈ 0.803 µM) against Bacillus subtilis; 1 µg/mL (≈ 1.61 µM) against Escherichia coli; 0.12 µg/mL (≈ 0.193 µM) against Klebsiella pneumoniae; 0.5 µg/mL (≈ 0.803 µM) in test [1]; 0.25 µg/mL (≈ 0.401 µM) against Pseudomonas aeruginosa; 0.25 µg/mL (≈ 0.401 µM) against Staphylococcus aureus. Also, the zone of inhibition at 25 µg/mL with Candida albicans [2] was 16 mm. For the same molecule, in the test on Candida albicans [3], the zone of inhibition at 50 µg/mL was found to be 18 mm. Also, the zone of inhibition at 100 µg/mL in the test on Candida albicans [4] was 21 mm.
On to `CC1COc2c(N3CCN(C)CC3)c(F)cc3c(=O)c(C(=O)N/N=C/c4ccccc4Cl)cn1c23` (stereo not given), for which the minimum inhibitory concentration (MIC) was 0.5 µg/mL (≈ 1 µM) in the test with Bacillus subtilis; 0.5 µg/mL (≈ 1 µM) with Escherichia coli; 0.12 µg/mL (≈ 0.241 µM) in the test on Klebsiella pneumoniae; 0.5 µg/mL (≈ 1 µM) in test [1]; 0.25 µg/mL (≈ 0.502 µM) in the test on Pseudomonas aeruginosa; 0.125 µg/mL (≈ 0.251 µM) with Staphylococcus aureus. For the same molecule, in the test with Candida albicans [2], the zone of inhibition at 25 µg/mL turned out to be 16 mm. In the test on Candida albicans [3], the zone of inhibition at 50 µg/mL was found to be 18 mm. For the same molecule, the zone of inhibition at 100 µg/mL in the test with Candida albicans [4] stood at 22 mm.
On to `COc1ccc(/C=N/NC(=O)c2cn3c4c(c(N5CCN(C)CC5)c(F)cc4c2=O)OCC3C)cc1` (stereo not given), for which the minimum inhibitory concentration (MIC) against Bacillus subtilis worked out at 0.5 µg/mL (≈ 1.01 µM); against Escherichia coli, 0.5 µg/mL (≈ 1.01 µM); against Klebsiella pneumoniae, 0.5 µg/mL (≈ 1.01 µM); in test [1], 0.25 µg/mL (≈ 0.507 µM); against Pseudomonas aeruginosa, 0.5 µg/mL (≈ 1.01 µM); in the test with Staphylococcus aureus, 0.125 µg/mL (≈ 0.253 µM). Moreover, in the test with Candida albicans [2], the zone of inhibition at 25 µg/mL was found to be 18 mm. Further, in the test on Candida albicans [3], the zone of inhibition at 50 µg/mL turned out to be 20 mm. The zone of inhibition at 100 µg/mL in the test on Candida albicans [4] is 23 mm.
On to `CC1COc2c(N3CCN(C)CC3)c(F)cc3c(=O)c(C(=O)N/N=C/c4ccccc4O)cn1c23` (stereo not given), for which the minimal inhibitory concentration (MIC) against Bacillus subtilis was found to be 0.5 µg/mL (≈ 1.04 µM); in the test on Escherichia coli, 1 µg/mL (≈ 2.09 µM); in the test on Klebsiella pneumoniae, 1 µg/mL (≈ 2.09 µM); in test [1], 0.25 µg/mL (≈ 0.521 µM); against Pseudomonas aeruginosa, 0.12 µg/mL (≈ 0.25 µM); against Staphylococcus aureus it was 0.25 µg/mL (≈ 0.521 µM). Moreover, the zone of inhibition at 25 µg/mL in the test with Candida albicans [2] was 15 mm. In addition, the zone of inhibition at 50 µg/mL with Candida albicans [3] stood at 18 mm. In addition, the zone of inhibition at 100 µg/mL with Candida albicans [4] came out at 21 mm.
Turning to `CC1COc2c(N3CCN(C)CC3)c(F)cc3c(=O)c(C(=O)NNC=O)cn1c23` (stereo not given), the MIC in the test with Bacillus subtilis is 0.5 µg/mL (≈ 1.24 µM); with Escherichia coli, 1 µg/mL (≈ 2.48 µM); against Klebsiella pneumoniae, 1 µg/mL (≈ 2.48 µM); in test [1], 0.25 µg/mL (≈ 0.62 µM); against Pseudomonas aeruginosa, 1 µg/mL (≈ 2.48 µM); against Staphylococcus aureus, 0.25 µg/mL (≈ 0.62 µM). The zone of inhibition at 25 µg/mL in the test with Candida albicans [2] turned out to be 18 mm. Further, the zone of inhibition at 50 µg/mL in the test on Candida albicans [3] came to 21 mm. Moreover, in the test with Candida albicans [4], the zone of inhibition at 100 µg/mL worked out at 23 mm.
As to `CC1COc2c(N3CCN(C)CC3)c(F)cc3c(=O)c(C(=O)N/N=C/c4cccc([N+](=O)[O-])c4)cn1c23` (stereo not given), the MIC in the test on Bacillus subtilis was found to be 0.5 µg/mL (≈ 0.983 µM); with Escherichia coli it was 0.5 µg/mL (≈ 0.983 µM); against Klebsiella pneumoniae it was 0.5 µg/mL (≈ 0.983 µM); in test [1] it was 0.25 µg/mL (≈ 0.492 µM); in the test with Pseudomonas aeruginosa, 0.5 µg/mL (≈ 0.983 µM); in the test on Staphylococcus aureus, 0.25 µg/mL (≈ 0.492 µM). Further, the zone of inhibition at 25 µg/mL in the test on Candida albicans [2] worked out at 15 mm. Further, in the test on Candida albicans [3], the zone of inhibition at 50 µg/mL amounted to 17 mm. The zone of inhibition at 100 µg/mL in the test on Candida albicans [4] was 20 mm.
On to `CC1COc2c(N3CCN(C)CC3)c(F)cc3c(=O)c(C(=O)N/N=C/c4ccccc4)cn1c23` (stereo not given), for which the MIC against Bacillus subtilis was 0.5 µg/mL (≈ 1.08 µM); against Escherichia coli, 1 µg/mL (≈ 2.16 µM); against Klebsiella pneumoniae, 0.25 µg/mL (≈ 0.539 µM); in test [1], 0.25 µg/mL (≈ 0.539 µM); in the test on Pseudomonas aeruginosa, 1 µg/mL (≈ 2.16 µM); against Staphylococcus aureus, 0.125 µg/mL (≈ 0.27 µM). In addition, the zone of inhibition at 25 µg/mL with Candida albicans [2] worked out at 15 mm. For the same molecule, in the test with Candida albicans [3], the zone of inhibition at 50 µg/mL worked out at 18 mm. For the same molecule, the zone of inhibition at 100 µg/mL with Candida albicans [4] came out at 21 mm.
Take `CC1COc2c(N3CCN(C)CC3)c(F)cc3c(=O)c(-c4nn(CCC(=O)c5ccccc5)c(=S)o4)cn1c23` (stereo not given): the MIC came out at 0.5 µg/mL (≈ 0.91 µM) in the test with Bacillus subtilis; 1 µg/mL (≈ 1.82 µM) against Escherichia coli; 0.25 µg/mL (≈ 0.455 µM) in the test on Klebsiella pneumoniae; 0.5 µg/mL (≈ 0.91 µM) in test [1]; 2 µg/mL (≈ 3.64 µM) against Pseudomonas aeruginosa; 0.25 µg/mL (≈ 0.455 µM) with Staphylococcus aureus. Further, the zone of inhibition at 25 µg/mL in the test with Candida albicans [2] is 16 mm. Further, the zone of inhibition at 50 µg/mL with Candida albicans [3] turned out to be 19 mm. For the same molecule, the zone of inhibition at 100 µg/mL with Candida albicans [4] amounted to 22 mm.
Take `CC1COc2c(N3CCN(C)CC3)c(F)cc3c(=O)c(-c4nn(CCC(=O)c5ccc(N)cc5)c(=S)o4)cn1c23` (stereo not given): the MIC with Bacillus subtilis is 0.5 µg/mL (≈ 0.886 µM); against Escherichia coli, 0.25 µg/mL (≈ 0.443 µM); in the test on Klebsiella pneumoniae, 0.5 µg/mL (≈ 0.886 µM); in [1], 0.5 µg/mL (≈ 0.886 µM); against Pseudomonas aeruginosa, 0.5 µg/mL (≈ 0.886 µM); in the test with Staphylococcus aureus it was 0.25 µg/mL (≈ 0.443 µM). Also, the zone of inhibition at 25 µg/mL with Candida albicans [2] turned out to be 17 mm. In addition, the zone of inhibition at 50 µg/mL in the test on Candida albicans [3] is 18 mm. The zone of inhibition at 100 µg/mL in the test with Candida albicans [4] is 21 mm.
Regarding `CC(=O)CCn1nc(-c2cn3c4c(c(N5CCN(C)CC5)c(F)cc4c2=O)OCC3C)oc1=S` (stereo not given), the minimum inhibitory concentration (MIC) came out at 0.5 µg/mL (≈ 1.03 µM) with Bacillus subtilis; 0.25 µg/mL (≈ 0.513 µM) against Escherichia coli; 0.12 µg/mL (≈ 0.246 µM) in the test on Klebsiella pneumoniae; 0.25 µg/mL (≈ 0.513 µM) in test [1]; 0.25 µg/mL (≈ 0.513 µM) in the test on Pseudomonas aeruginosa; 0.25 µg/mL (≈ 0.513 µM) in the test with Staphylococcus aureus. In addition, in the test on Candida albicans [2], the zone of inhibition at 25 µg/mL is 15 mm. Also, the zone of inhibition at 50 µg/mL in the test on Candida albicans [3] worked out at 18 mm. The zone of inhibition at 100 µg/mL in the test with Candida albicans [4] is 22 mm.
Consider `CC(=O)CCn1nc(-c2cn3c4c(c(N5CCN(C)CC5)c(F)cc4c2=O)OCC3C)n(N)c1=S` (stereo not given), for which the minimum inhibitory concentration (MIC) against Bacillus subtilis was 0.5 µg/mL (≈ 0.997 µM); in the test on Escherichia coli it was 0.5 µg/mL (≈ 0.997 µM); against Klebsiella pneumoniae it was 0.12 µg/mL (≈ 0.239 µM); in [1] it was 0.5 µg/mL (≈ 0.997 µM); in the test on Pseudomonas aeruginosa it was 0.5 µg/mL (≈ 0.997 µM); with Staphylococcus aureus it was 3.12 µg/mL (≈ 6.23 µM). Besides, in the test with Candida albicans [2], the zone of inhibition at 25 µg/mL came out at 16 mm. Besides, in the test on Candida albicans [3], the zone of inhibition at 50 µg/mL is 18 mm. For the same molecule, the zone of inhibition at 100 µg/mL with Candida albicans [4] was determined as 22 mm.
As to `CC1COc2c(N3CCN(C)CC3)c(F)cc3c(=O)c(-c4nn(CCC(=O)c5ccccc5O)c(=S)n4N)cn1c23` (stereo not given), the MIC was found to be 0.5 µg/mL (≈ 0.863 µM) against Bacillus subtilis; 1 µg/mL (≈ 1.73 µM) in the test with Escherichia coli; 0.12 µg/mL (≈ 0.207 µM) in the test on Klebsiella pneumoniae; 0.5 µg/mL (≈ 0.863 µM) in test [1]; 0.5 µg/mL (≈ 0.863 µM) with Pseudomonas aeruginosa; 0.25 µg/mL (≈ 0.431 µM) against Staphylococcus aureus. Also, in the test on Candida albicans [2], the zone of inhibition at 25 µg/mL was found to be 15 mm. In addition, the zone of inhibition at 50 µg/mL in the test on Candida albicans [3] was found to be 17 mm. The zone of inhibition at 100 µg/mL with Candida albicans [4] is 21 mm.
Regarding `CC1COc2c(N3CCN(C)CC3)c(F)cc3c(=O)c(C(=O)O)cn1c23` (stereo not given) [OFLOXACIN], the minimum inhibitory concentration (MIC) was found to be 1 µg/mL (≈ 2.77 µM) against Bacillus subtilis, 0.06 µg/mL (≈ 0.166 µM) against Klebsiella pneumoniae, 0.5 µg/mL (≈ 1.38 µM) in test [1] and 0.25 µg/mL (≈ 0.692 µM) in the test on Staphylococcus aureus. For the same molecule, the zone of inhibition at 25 µg/mL in the test with Candida albicans [2] was 21 mm. Further, the zone of inhibition at 50 µg/mL in the test on Candida albicans [3] was 26 mm. Further, the zone of inhibition at 100 µg/mL in the test with Candida albicans [4] stood at 28 mm.
